Where two headings read alike, the source gives them in different places.
What was measured:
C1b domain of human PKCα = biological target: T1, C1b domain of human PKCα (Homo sapiens, UniProt P17252); assay: biochemical; assay type: binding; conditions: 3H-PDBu competition
T1 construct: Genes encoding C1b domains of human PKCα, δ, ε, θ, and PKD1 (PKCμ) were synthesized; made in house; host or cells: E. coli BL21(DE3)
Protocol: (§1) Compounds described in this disclosure were tested for binding affinity to C1b domain of PKC isoforms. Compound binding affinity to C1b domain of PKC isoforms was derived from competitive binding assay using radioactive tracer ^3H-PDBu and recombinant GST-C1b or full-length of human PKC proteins based on modified procedures from Methods in Molecular Biology, vol.
(§2) Genes encoding C1b domains of human PKCα, δ, ε, θ, and PKD1 (PKCμ) were synthesized and inserted into pGEX-2TK or pGEX-4T1 vectors for expression and production of GST-C1b proteins in E. coli BL21(DE3) via IPTG induction. The target proteins were purified by glutathione sepharose 4B and followed by ion exchange chromatography if needed to achieve purity >70%. Aliquots of the purified proteins were stored at −80 degree for binding assay (storage buffer: 20 mM Tris pH 8.0, 200 mM NaCl, 10% glycerol, 1 mM DTT).
The plate was incubated at 37° C. on a shaker at 300 rpm for 10 minutes and then put on ice for 20 minutes. […] The bottom of the filter plate was sealed and 50 μL of MicroScint-20 (PerkinElmer) cocktail was added to each well. ^3H-PDBu trapped in each well was counted using PerkinElmer MicroBeta2 Reader. […] Kd is the binding affinity of each protein preparation to ^3H-PDBu, determined experimentally.

C1b domain of human PKCε = biological target: T2, C1b domain of human PKCε (Homo sapiens, UniProt Q02156); assay: Competitive 3H-PDBu binding to C1b domain of PKCε
T2 construct: Genes encoding C1b domains of human PKCα, δ, ε, θ, and PKD1 (PKCμ) were synthesized; made in house; host or cells: E. coli BL21(DE3)
Protocol: as §1, §2
(§3) The plate was incubated at 37° C. on a shaker at 300 rpm for 10 minutes and then put on ice for 20 minutes. […] The bottom of the filter plate was sealed and 50 μL of MicroScint-20 (PerkinElmer) cocktail was added to each well. ^3H-PDBu trapped in each well was counted using PerkinElmer MicroBeta2 Reader. Data were analyzed using GraphPad Prism5 with the model “log(inhibitor) vs. response-variable slope” to fit the IC50, and then IC50 was transformed to Ki using Cheng-Prusoff equation: Ki=IC50/(1+added radio ligand/Kd). Kd is the binding affinity of each protein preparation to ^3H-PDBu, determined experimentally.

[1] = test system: Namalwa (Lymphoma) cell line; assay: Proliferation of Namalwa; assay type: cell-based; conditions: for ratio of (IC50 of K01)/(IC50 of compound), Namalwa: value in parenthesis; for IC50: read-out: IC50 in μM Namalwa (Lymphoma)
Protocol: (§4) The diterpenoid compounds were tested in A549, a non-small cell lung cancer cell line harboring a K-Ras activating mutation. Briefly, A549 cells at a density of 1,000 cells/well were seeded in 96-well plates and incubated at 37° C. for 24 hours. A series of different concentrations of compound stocks (500×) were prepared by 3-fold serial dilution in DMSO. These compounds were further diluted in culture media and then added to cells so that the final DMSO concentration was not exceeding 0.25%. After 96 hours of incubation, 50 μL of CellTiter Glo reagent (Promega) was added to each well and luminescence was measured after 10 minutes using EnVision (PerkinElmer). Luminescence from cells treated with DMSO alone was set as Max and % of inhibition was calculated as follows: Inhibition %=(Max−Sample value)/Max×100. Data was analyzed using XL-fit software (ID Business Solutions Ltd.) and IC50, relative IC50, and % of top inhibition was calculated. Some of the compounds in this disclosure were very potent in blocking proliferation of A549 lung cancer cells at low nM range. In addition, potency of inhibiting A549 proliferation correlated well with its binding affinity to PKCs for this series of compounds. In other words, higher affinity binders had stronger inhibitory effects on A549 proliferation. This further support the notion that activation, rather than inhibition, of certain PKC isoforms is required to block proliferation of cancer cells, some of which may harbor K-Ras mutations. This is in sharp contrast to previous literature and common belief that inhibition of PKC is necessary to block cancer cell growth (Kang, 2014, New Journal of Science, 2014:1-36). Data presented here is in agreement with recent findings that many loss-of-function but not gain-of-function mutations of PKC isoforms have been identified in many human cancers (Antal et al., 2015, Cell, 160:489-502).
(§5) The compounds in this disclosure were tested for their potency in blocking proliferation of a few other cancer cells lines, including K-Ras mutant pancreatic cell lines Panc2.13 and KP-4, leukemia cell line HL-60, and lymphoma cell lines Namalwa and Mino. Similar procedures as in Example 67 were followed. Initial cell numbers seeded in 96-well plates were different for different cell lines: 3000 cells/well for Panc2.13; 800-1000 cells/well for KP-4; 5000 cells/well for HL-60; 5000-10000 cells/well for Namalwa and Mino. A ratio ratio of (IC50 of K01)/(IC50 of compound) (data in parenthesis in Table 5) was used to normalize the compound potency from different assay batches to a common comparator […].

C1b domain of human PKCθ = biological target: T3, C1b domain of human PKCθ (Homo sapiens, UniProt Q04759); assay: Competitive 3H-PDBu binding to C1b domain of PKCθ
T3 construct: Genes encoding C1b domains of human PKCα, δ, ε, θ, and PKD1 (PKCμ) were synthesized; made in house; host or cells: E. coli BL21(DE3)
T3 sequence (Q04759 231-281 limits assumed): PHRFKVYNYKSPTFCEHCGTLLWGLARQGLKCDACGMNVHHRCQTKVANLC
Protocol: as §1, §2, §3

[2] = test system: A549 non-small cell lung cancer cell line; assay: Proliferation of A549 (CellTiter Glo); assay type: cell-based; conditions: Homo sapiens, read-out: IC50 μM (A549 Cell Line)
Protocol: as §4

[3] = test system: HL-60 (Leukemia) cell line; assay: Proliferation of HL-60; assay type: cell-based
Protocol: as §4, §5

[4] = test system: Mino (Lymphoma) cell line; assay: Proliferation of Mino; assay type: cell-based
Protocol: as §4, §5

C1b domain of human PKCδ = biological target: T4, C1b domain of human PKCδ (Homo sapiens, UniProt Q05655); assay: Competitive 3H-PDBu binding to C1b domain of PKCδ; conditions: 3H-PDBu competition
T4 construct: Genes encoding C1b domains of human PKCα, δ, ε, θ, and PKD1 (PKCμ) were synthesized; made in house; host or cells: E. coli BL21(DE3)
Protocol: as §1, §2, §3

[5] = biological target: T5, C1b domain of human PKD1 (PKCμ) (Homo sapiens, UniProt Q15139); assay: biochemical; assay type: binding
T5 construct: Genes encoding C1b domains of human PKCα, δ, ε, θ, and PKD1 (PKCμ) were synthesized; made in house; host or cells: E. coli BL21(DE3)
T5 sequence (Q15139 270-320 limits assumed): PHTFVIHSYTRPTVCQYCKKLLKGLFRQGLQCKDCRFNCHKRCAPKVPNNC
Protocol: as §1, §2, §3

[6] = test system: KP-4 (Pancreatic) cell line; assay: Proliferation of KP-4; assay type: cell-based; conditions: Homo sapiens, KP-4, read-out: IC50 in μM KP-4 (Pancreatic)
Protocol: as §4, §5

[7] = test system: Panc2.13 (Pancreatic) cell line; assay: Proliferation of Panc2.13; assay type: cell-based
Protocol: as §4, §5

[8] = Homo sapiens, HL-60, read-out: IC50 in μM HL-60 (Leukemia)
[9] = Homo sapiens, MINO, read-out: IC50 in μM Mino (Lymphoma)

T4 sequence (Q05655 230-280 limits assumed): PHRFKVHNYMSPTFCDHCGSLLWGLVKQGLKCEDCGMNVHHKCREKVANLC
T2 sequence (Q02156 242-292 limits assumed): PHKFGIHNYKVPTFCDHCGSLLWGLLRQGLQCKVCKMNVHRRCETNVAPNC

Structure (SMILES) | Ki (C1b domain of human PKCα; Ki PKCα) | Ki (C1b domain of human PKCε) | ratio of (IC50 of K01)/(IC50 of compound), Namalwa [1] | IC50 [1] | Ki (C1b domain of human PKCθ) | IC50 ([2]; A549, 96 h) | ratio of (IC50 of K01)/(IC50 of compound), HL-60 ([3]; HL-60; value in parenthesis) | IC50 [3, 8] | IC50 [4, 9] | ratio of (IC50 of K01)/(IC50 of compound), Mino ([4]; Mino; value in parenthesis) | Ki (C1b domain of human PKCδ; Ki PKCδ) | Ki [5] | also measured
CC1=C[C@H]2[C@@]3(O)[C@H](C)C[C@]4(OC(=O)CCC5CCCC5)[C@H]([C@@H]3C=C(CO)C[C@]2(O)C1=O)C4(C)C [Compound K101-C1301] | 100 to 200 nM | 5 to 10 nM | 1.73 | 0.03 to 0.06 µM | 1 to 30 nM | 0.03 to 0.06 µM | 9.23 | 0.03 to 0.06 µM | 0.001 to 0.01 µM | 11 | 5 to 10 nM | < 5 nM | 
CC1=C[C@H]2[C@@]3(O)[C@H](C)C[C@]4(OC(=O)CCc5ccc(C(F)(F)F)cc5)[C@H]([C@@H]3C=C(CO)C[C@]2(O)C1=O)C4(C)C [Compound K101-C1302] | 30 to 60 nM | < 5 nM | 13.8 | 0.001 to 0.01 µM | < 5 nM | 0.01 to 0.03 µM | 72 | 0.001 to 0.01 µM | < 0.001 µM | 75 | < 5 nM | < 5 nM | 
CC1=C[C@H]2[C@@]3(O)[C@H](C)C[C@]4(OC(=O)Cc5ccccc5)[C@H]([C@@H]3C=C(CO)C[C@]2(O)C1=O)C4(C)C [Compound K101-C1304] |  |  | 3.29 | 0.01 to 0.03 µM |  |  | 18 |  |  | 15.6 |  |  | Ki (C1b domain of human PKCα; read-out: Ki PKCα): 100 to 200 nM; Ki (C1b domain of human PKCε; C1b domain of human PKCε, 3H-PDBu competition, read-out: Ki PKCε): 1 to 30 nM; Ki (C1b domain of human PKCθ; C1b domain of human PKCθ, 3H-PDBu competition, read-out: Ki PKCθ): 5 to 10 nM; IC50 ([2]; A549, 96 hours incubation, CellTiter Glo): 0.03 to 0.06 µM; IC50 ([3]; Homo sapiens, HL-60; read-out: IC50 in μM HL-60 (Leukemia)): 0.01 to 0.03 µM; IC50 ([4]; Homo sapiens, MINO; read-out: IC50 in μM Mino (Lymphoma)): 0.001 to 0.01 µM; Ki (C1b domain of human PKCδ; read-out: Ki PKCδ): 5 to 10 nM; Ki ([5]; C1b domain of human PKD1 (PKCμ), 3H-PDBu competition, read-out: Ki PKD1/PKCμ): < 5 nM
CC1=C[C@H]2[C@@]3(O)[C@H](C)C[C@]4(OC(=O)[C@@H](N)CCc5ccccc5)[C@H]([C@@H]3C=C(CO)C[C@]2(O)C1=O)C4(C)C [Compound K101-C1318] | 100 to 200 nM | 30 to 60 nM | 0.93 | 0.06 to 0.1 µM | 1 to 30 nM | 0.1 to 0.2 µM | 3.21 | 0.1 to 0.2 µM | 0.01 to 0.03 µM | 3.18 | 5 to 10 nM | < 5 nM | IC50 [6]: 0.1 to 0.2 µM; ratio of (IC50 of K01)/(IC50 of compound), Panc2.13 ([7]; Panc2.13, value in parenthesis): 4.28; IC50 ([7]; read-out: IC50 in μM Panc2.13 (Pancreatic)): 0.2 to 0.6 µM
CC1=C[C@H]2[C@@]3(O)[C@H](C)C[C@]4(OC(=O)CCCc5ccccc5)[C@H]([C@@H]3C=C(CO)C[C@]2(O)C1=O)C4(C)C [Compound K101-C1324] | 100 to 200 nM | < 5 nM | 8.63 | 0.001 to 0.01 µM | < 5 nM | 0.01 to 0.03 µM | 32.7 | 0.01 to 0.03 µM | 0.001 to 0.01 µM | 37.5 | < 5 nM | < 5 nM | 

From patent US20220411362A1, “DITERPENOID COMPOUNDS THAT ACT ON PROTEIN KINASE C (PKC)” (K-Gen, Inc., priority 2019, published 2022)
